The source of these data is publication PMC6731340, “Evaluation of synergy between host and pathogen-directed therapies against intracellular Leishmania donovani” (International Journal for Parasitology: Drugs and Drug …, 2019).

Where two headings read alike, the source gives them in different places. Bounds are passed on as bounds.

The subject of one data set is L. donovani amastigotes. Details: method as in De Muylder et al., 2011. To be noted: intracellular vs axenically grown amastigotes; ref De Muylder et al., 2011; cited from earlier work.
Data set [1] relates to L. donovani intracellular amastigotes. Kind of data set: Modified resazurin-based viability analysis of L. donovani in infected macrophages. The format is cell-based, Leishmania donovani. To be noted: for Selectivity (LD50/IC50): LD50 macrophages / resazurin intracellular IC50; for IC50: Leishmania donovani, BMDM, infected BMDMs, 72 h. As for the experimental part: BMDMs (1 × 10^5 per one 96-well) infected overnight with stationary phase L. donovani promastigotes (MOI 1:10), were washed (3×) with serum free DMEM, and incubated with compounds for 72 h. Then, parasites were rescued with BMDM controlled lysis, modified from a previous report ([Kiderlen and Kaye, 1990]). In brief, cells were washed with serum-free HEPES-buffered RPMI (HEPES-RPMI; 1×), lysed (20 min) with HEPES-RPMI (100 μL/well) with 0.008% SDS (w/v), SDS neutralized with HEPES-RPMI with 17% FBS (v/v; 150 μL/well) and placed in an air-tight container (25 °C for 96 h). Resazurin [0.02% (w/v); 25 μL] was added, incubated (24 h) and was assessed fluorometrically.
(Alamar Blue is a resazurin reagent that responds to reducing activity.)

Data set [2] deals with L. donovani extracellular promastigotes. The data set can be described thus: Resazurin-based drug susceptibility assay on promastigotes. To be noted: Leishmania donovani, 72 h drug at 25 °C. The format is cell-based. On the procedure:
(§1) Leishmania donovani strain (ATCC 30030; ATCC; Manassas VA) was used in all studies and grown via manufacture's specification. The promastigotes screening were performed as described previously, with few modifications ([Kulshrestha et al., 2013]). Late log-phase promastigotes (1 × 10^5 per one 96-well) were incubated with drug for 72 h at 25 °C. Resazurin was added [0.002% (w/v)], incubated for 24 h and assessed fluorometrically (ex: 544 nm/em: 590 nm; SpectraMax M2, Molecular Devices, Sunnyvale, CA). L. donovani axenic amastigotes were differentiated as described previously, with little modification ([Ephros et al., 1997]). Late log-phase promastigotes were differentiated into axenic amastigotes in a low pH (6.3) medium for 96 h at 37 °C. Fully differentiated axenic amastigotes (2 × 10^5 per one 96-well) were incubated 72 h with drug at 37 °C, and resazurin assay was then performed as indicated above.

In data set [3] the test system is Mouse bone marrow-derived macrophages (BMDMs). The data set can be described thus: LDH mammalian cytotoxicity assay. To be noted: 50% Lethal Dose for BMDMs.
Description: (§2) Mouse bone marrow-derived macrophages (BMDMs) isolation from BALB/c mice and culture was done as described previously ([Weischenfeldt and Porse, 2008]), and approved by the Animal Care and Use Committees at UNC. A lactate dehydrogenase (LDH) assay (Thermo Fisher Scientific, Grand Island, NY) was used to determine cytotoxicity per manufacturer's directions.
The test system of data set [4] is L. donovani intracellular amastigotes. Kind of data set: Image-based (Giemsa) evaluation of intracellular anti-leishmanial activity in infected BMDMs. The format is cell-based. To be noted: Leishmania donovani, BMDM, 72 h, Giemsa stain. On the procedure:
An image-based anti-leishmanial assay was used as described previously with slight modification ([Collier et al., 2016]). BMDMs seeded on round glass coverslips (5 × 10^5 cells per one 24-well) were allowed to adhere overnight, infected with stationary phase L. donovani promastigotes (MOI 1:10), incubated overnight, and washed (3×) with warmed serum-free media. Compounds were added, incubated for 72 h, washed (3×) with PBS, fixed with methanol and stained with Giemsa stain (1:20 in H2O). An EVOS XL (100×, Thermo Fisher Scientific) was used for imaging. L. donovani amastigotes per 100 macrophages was determined, in duplicate, and in a blinded fashion.

Data set [5] relates to L. donovani axenic amastigotes. Kind of data set: Resazurin-based drug susceptibility assay on axenic amastigotes. The format is cell-based. To be noted: Leishmania donovani, 72 h drug at 37 °C. As for the experimental part:
as §1

The test system of the next data set is VL patients. Details: method as in Sundar et al., 2008. To be noted: AMB alone; ref Sundar et al., 2008; cited from earlier work.
In data set [6] the test system is Mouse bone marrow-derived macrophages (BMDMs). To be noted: BALB/c.
Description: as §2
The test system of another data set is promastigotes. Details: method as in Pan et al., 2012. To be noted: ref Pan et al., 2012; read-out: IC50, direct activity against promastigotes; cited from earlier work.
Data set [7] deals with intracellular L. mexicana. Details: method as in Pan et al., 2012. To be noted: ref Pan et al., 2012; read-out: IC50, anti-leishmanial activity against intracellular L. mexicana; cited from earlier work.
Details of data set [8]: method as in earlier work. To be noted: ref Mishra and Singh, 2013; Perez-Victoria et al., 2006; Seifert et al., 2007; cited from earlier work.

Consider `C=CCN1CC[C@]23c4c5ccc(O)c4O[C@H]2/C(=N/N=C2\CC[C@@]4(O)[C@H]6Cc7ccc(O)c8c7[C@@]4(CCN6CC=C)[C@H]2O8)CC[C@@]3(O)[C@H]1C5` [naloxonazine], for which, in the data set with L. donovani amastigotes, the anti-leishmanial activity result is on record as “found only against intracellular L. donovani amastigotes”.
The IC50 is the concentration needed to halve the response being measured. In the case of `NCC(=O)Nc1ccc(-n2nc(C(F)(F)F)cc2-c2ccc3c(ccc4ccccc43)c2)cc1` [AR-12], the “Selectivity (LD50/IC50)” value in data set [1] worked out at 8. In addition, the 50% inhibitory concentration (IC50) in [1] turned out to be 1.44 ± 0.08 µM; in [2], 3.3 ± 0.42 µM; in [4], 1.18 ± 0.18 µM; in [5] it was 3.45 ± 0.07 µM. The “Cytotoxicity LD50” value in data set [3] was 11.1 ± 2.5 µM.
Take `C[C@@H]1[C@H](O)[C@@H](C)/C=C/C=C/C=C/C=C/C=C/C=C/C=C/[C@H](O[C@@H]2O[C@H](C)[C@@H](O)[C@H](N)[C@@H]2O)C[C@@H]2O[C@](O)(C[C@@H](O)C[C@@H](O)[C@H](O)CC[C@@H](O)C[C@@H](O)CC(=O)O[C@H]1C)C[C@H](O)[C@H]2C(=O)O` [Amphotericin B, amphotericin B]: the “Selectivity (LD50/IC50)” value in [1] is 1167. Further, the IC50 in [1] was determined as 0.033 ± 0.011 µM; in data set [2] it was 0.047 ± 0.004 µM; in data set [4], 0.024 ± 0.001 µM; in [5], 0.049 ± 0.005 µM. Moreover, the VL patients cured with VL patients is on record as 91%. Besides, in data set [6], the “Cytotoxicity LD50” value turned out to be 38.5 ± 4.95 µM.
As to `CC(=O)C1=CC[C@H]2[C@@H]3CCC4=CC(=O)CC[C@]4(C)[C@H]3C[C@@H](O)[C@]12C` [DNER, 6,7-dihydroneridienone], the IC50 in the data set on promastigotes was 9200 nM; in [7], 1400 nM.
As for `CCCCCCCCCCCCCCCCOP(=O)([O-])OCC[N+](C)(C)C` [Miltefosine, miltefosine], the values for the concentration for half-maximal inhibition (IC50) in data set [1], in data set [2] and in data set [4] were 0.55 ± 0.15 µM, 5.4 ± 0.42 µM and 1.1 ± 0.37 µM, respectively. In data set [8], the drug half-life is on record as roughly 150 h. In addition, in data set [3], the “Cytotoxicity LD50” value came to 62.5 ± 4.95 µM.
With `NC[C@@H]1O[C@H](O[C@H]2[C@@H](O)[C@H](O[C@@H]3[C@@H](O)[C@H](N)C[C@H](N)[C@H]3O[C@H]3O[C@H](CO)[C@@H](O)[C@H](O)[C@H]3N)O[C@@H]2CO)[C@H](N)[C@@H](O)[C@@H]1O` [Paromomycin, paromomycin], the “Selectivity (LD50/IC50)” value in [1] is greater than 68. For the same compound, the IC50 in [1] was found to be 11.6 ± 0.42 µM; in data set [2], 59 ± 5.66 µM; in [4] it was 15.2 ± 4.67 µM; in [5], 22 ± 4.24 µM. The “Cytotoxicity LD50” value in data set [3] is greater than 800 µM.
